According to patent publication US5712300A, “Hydroxamic acid derivatives useful for the treatment of diseases related to connective tissue degradation” (priority 1997, dated 1998):
Counter-ions that a name gives are not always drawn.

Tests used:
Format in all cases: biochemical
Stromelysin = Stromelysin (Homo sapiens, UniProt P08254); assay: MMP inhibition by particle concentration fluorescence technique (stromelysin); conditions: pH 7.5; 15 min enzyme preincubation; substrate 1-3 h at room temperature; read-out: MMP Inhibition Constants, Stromelysin Ki
Description: An inhibitor binds to MMP enzymes prevents the degradation of a substrate of stromelysin, gelatinase, or collagenase. The substrate is attached with a fluorescein and a biotin. The intact substrate then binds to an avidin-coated particle via the biotin moiety. Once the particle is washed and dried, a fluorescent signal is generated since the fluorescent group is attached to the particle. Without an inhibitor present, the substrate is degraded by MMP enzymes and the fluorescein group is removed, therefore, no fluorescent signal can be detected. […] Serial two-fold dilutions of each compound are prepared. A concentrated, activated enzyme solution is transferred into each plate of the testing compounds, and the mixture is incubated at room temperature for 15 minutes.

Collagenase = biological target: T1, Collagenase (Homo sapiens, UniProt P03956); assay: MMP inhibition by particle concentration fluorescence technique (collagenase); conditions: pH 7.5; 15 min enzyme preincubation; substrate 1-3 h at room temperature; read-out: MMP Inhibition Constants, Collagenase Ki
T1 sequence (P03956 100-469): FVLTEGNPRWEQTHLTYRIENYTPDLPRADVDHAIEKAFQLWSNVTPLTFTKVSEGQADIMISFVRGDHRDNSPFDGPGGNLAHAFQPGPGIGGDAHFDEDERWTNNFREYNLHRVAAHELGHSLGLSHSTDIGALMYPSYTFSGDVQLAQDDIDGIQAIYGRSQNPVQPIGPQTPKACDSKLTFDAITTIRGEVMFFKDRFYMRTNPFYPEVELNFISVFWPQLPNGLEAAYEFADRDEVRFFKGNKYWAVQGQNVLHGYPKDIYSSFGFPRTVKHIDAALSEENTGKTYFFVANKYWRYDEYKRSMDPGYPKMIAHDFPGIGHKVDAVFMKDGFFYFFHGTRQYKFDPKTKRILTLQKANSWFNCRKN
Procedure: (§1) Inhibitory activity is evaluated in one or more of the MMP enzymes (stromelysin, gelatinase, and collagenase) in vitro using a particle concentration fluorescence techniques. An inhibitor binds to MMP enzymes prevents the degradation of a substrate of stromelysin, gelatinase, or collagenase. The substrate is attached with a fluorescein and a biotin. The intact substrate then binds to an avidin-coated particle via the biotin moiety. Once the particle is washed and dried, a fluorescent signal is generated since the fluorescent group is attached to the particle. Without an inhibitor present, the substrate is degraded by MMP enzymes and the fluorescein group is removed, therefore, no fluorescent signal can be detected. Testing compounds are dissolved in DMSO to the desired concentration, then the solutions are diluted to 1:5 with MMP buffer (50 mM Tris-HCl, pH 7.5; 150 mM NaCl; 0.02% NAN3). Serial two-fold dilutions of each compound are prepared. A concentrated, activated enzyme solution is transferred into each plate of the testing compounds, and the mixture is incubated at room temperature for 15 minutes. Thawed MMP substrate is then added into all plates, and the plates are incubate in the dark for 1-3 hours at room temperature. At this point, the substrate mixture is reacted with 0.1% avidin-coated polystyrene particles.

Gelatinase = assay: MMP inhibition by particle concentration fluorescence technique (gelatinase); conditions: pH 7.5; 15 min enzyme preincubation; substrate 1-3 h at room temperature; read-out: MMP Inhibition Constants, Gelatinase Ki
Procedure: as §1

Stromelysin, sequence (P08254 100-477): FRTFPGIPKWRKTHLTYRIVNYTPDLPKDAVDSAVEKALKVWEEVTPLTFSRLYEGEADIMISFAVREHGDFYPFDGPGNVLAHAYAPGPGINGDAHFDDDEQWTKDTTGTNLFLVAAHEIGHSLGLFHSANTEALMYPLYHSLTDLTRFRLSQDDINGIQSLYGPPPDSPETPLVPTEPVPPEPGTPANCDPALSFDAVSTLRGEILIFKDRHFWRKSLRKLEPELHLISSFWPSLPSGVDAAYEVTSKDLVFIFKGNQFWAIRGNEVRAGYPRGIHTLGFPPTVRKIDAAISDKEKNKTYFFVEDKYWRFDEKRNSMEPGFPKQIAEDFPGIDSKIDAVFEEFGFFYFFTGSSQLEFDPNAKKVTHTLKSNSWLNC

Ki (Stromelysin) [nM]	Ki (Collagenase) [nM]	Ki (Gelatinase) [nM]	Compound
868	81.5	85.3	CNC(=O)[C@H](CCc1ccccc1)N1CC[C@](CC(=O)NO)(CC(C)C)C1=O [Example 47, [S-(R*,R*)]-N^3 -Hydroxy-N^1-methyl-3-(2-methylpropyl)-2-oxo-α^1-(2-phenylethyl)-1,3-pyrrolidinediacetamide]
295	74	264	CC(C)C[C@@]1([C@@H](CCNC(=O)c2ccc(F)cc2)C(=O)NO)CCN(CCc2ccccc2)C1=O (relative stereo) [Example 75, α-[2-[(4-Fluorobenzoyl)amino]ethyl]-N-hydroxy-3-(2-methylpropyl)-2-oxo-1-(2-phenylethyl)-3-pyrrolidineacetamide]
288	326	62	CC(C)C[C@@]1([C@@H](CCN2Cc3cc(F)ccc3C2=O)C(=O)NO)CCN(CCc2ccccc2)C1=O [Example 88, [R-(R*,S*)]-5-Fluoro-1,3-dihydro-N-hydroxy-α-[3-(2-methylpropyl)-2-oxo-1-(2-phenylethyl)-3-pyrrolidinyl]-1-oxo-2H-isoindole-2-butanamide]
640	39	83	CC(C)C[C@@]1([C@H](CCN2C(=O)c3ccccc3C2=O)C(=O)NO)CCN(CCc2ccc(F)cc2)C1=O (relative stereo) [Example 72, 1,3-Dihydro-N-hydroxy-α-[3-(2-methylpropyl)-2-oxo-1-[2-(4-fluorophenyl)ethyl]-3-pyrrolidinyl]-1,3-dioxo-2H-isoindole-2-butanamide]
1960	2070	1300	CC(C)C[C@@]1([C@@H](CCN2C(=O)c3ccccc3C2=O)C(=O)NO)CCN(Cc2ccccc2)C1=O (relative stereo) [Example 22, α-[2-(1,3-Dihydro-1,3-dioxo-2H-isoindol-2-yl)ethyl]-N-hydroxy-3-(2-methylpropyl)-2-oxo-1-(phenylmethyl)-3-pyrrolidineacetamide]
2080	22	49	CNC(=O)C(Cc1ccccc1)N1CCC(CC(=O)NO)(CC(C)C)C1=O (stereo not drawn) [Example 21, N^3 -Hydroxy-N^1-methyl-3-(2-methylpropyl)-2-oxo-α^1-(phenylmethyl)-1,3-pyrrolidinediacetamide]
309	370	273	CC(C)C[C@@]1([C@@H](NS(=O)(=O)c2ccc(F)cc2)C(=O)NO)CCN(CCc2ccccc2)C1=O (relative stereo) [Example 92, α-[[(4-Fluorophenyl)sulfonyl]amino]-N-hydroxy-3-(2-methylpropyl)-2-oxo-1-(2-phenylethyl)-3-pyrrolidineacetamide]
700	76	70	CC(C)C[C@@]1(CC(=O)NO)CCN([C@@H](Cc2ccccc2)C(=O)NCCN2CCOCC2)C1=O [Example 54, [S-(R*,R*)]-N^3 -Hydroxy-3-(2-methylpropyl)-N^1-[2-(4-morpholinyl)ethyl]-2-oxo-α^1-(phenylmethyl)-1,3-pyrrolidinediacetamide]
1770	52	624	COc1ccc(S(=O)(=O)NC[C@H](C(=O)NO)[C@]2(CC(C)C)CCN(CCc3ccccc3)C2=O)cc1 (relative stereo) [Example 90, N-Hydroxy-α-[[[(4-methoxyphenyl)sulfonyl]amino]methyl]-3-(2-methylpropyl)-2-oxo-1-(2-phenylethyl)-3-pyrrolidineacetamide]
138	85	61	CC(C)C[C@@H](C(=O)Nc1ccccn1)N1CC[C@](CC(=O)NO)(CC(C)C)C1=O [Example 49, [S-(R*,R*)]-N^3 -Hydroxy-α^1,3-bis(2-methylpropyl)-2-oxo-N^1-2-pyridinyl-1,3-pyrrolidinediacetamide]
119	25	13	O=C(NCC[C@@H](C(=O)NO)[C@]1(CCO)CCN(CCc2ccccc2)C1=O)c1ccc(F)c(F)c1 (relative stereo) [Example 95, α-[2-[(3,4-Difluorobenzoyl)amino]ethyl]-N-hydroxy-3-(2-hydroxyethyl)-2-oxo-1-(2-phenylethyl)-3-pyrrolidineacetamide]
188	21300	782	CC(C)C[C@@]1([C@@H](CCCN2C(=O)c3ccccc3C2=O)C(=O)NO)CCN(CCc2ccccc2)C1=O (relative stereo) [Example 15]
187	1.3	1.1	CNC(=O)[C@H](Cc1ccccc1)N1CC[C@](CC(=O)NO)(CC2CCCC2)C1=O [Example 52, [S-(R*,R*)]-3-(Cyclopentylmethyl)-N^3-hydroxy-N^1-methyl-2-oxo-α^1-(phenylmethyl)-1,3-pyrrolidinediacetamide]
230	3.3	11	CC(C)C[C@@]1(CC(=O)NO)CCN([C@H](C(=O)NCC2CC2)C2CCCCC2)C1=O (relative stereo) [Example 59, [S-(R*,R*)]-α^1 -Cyclohexyl-N^1-cyclopropylmethyl-N^3-hydroxy-3-(2-methylpropyl)-2-oxo-1,3-pyrrolidinediacetamide]
–	98	–	CC(C)C[C@@]1([C@H](CCN2C(=O)c3ccccc3C2=O)C(=O)NO)CCN(CCc2ccccc2)C1=O [Example 71, [S-(R*,R*)]-1,3-Dihydro-N-hydroxy-α-[3-(2-methylpropyl)-2-oxo-1-(2-phenylethyl)-3-pyrrolidinyl]-1,3-dioxo-2H-isoindole-2-butanamide]
4190	453	1560	CC(C)CC1(CC(=O)NO)CCN(Cc2ccccc2)C1=O (stereo not shown) [Example 23, N-Hydroxy-3-(2-methylpropyl)-2-oxo-1-(phenylmethyl)-3-pyrrolidineacetamide]
20200	1040	3290	CC(C)C[C@@]1(CC(=O)NO)CCN(CCc2ccccc2)C1=O [Example 2, (3S)-N-Hydroxy-3-(2-methylpropyl)-2-oxo-1-(2-phenylethyl)-3-pyrrolidineacetamide]
146	68.5	–	CC(C)C[C@@]1([C@@H](CCNC(=O)c2cccc(F)c2)C(=O)NO)CCN(CCc2ccccc2)C1=O (relative stereo) [Example 77, α-[2-[(3-Fluorobenzoyl)amino]ethyl]-N-hydroxy-3-(2-methylpropyl)-2-oxo-1-(2-phenylethyl)-3-pyrrolidineacetamide]
194	1200	–	CCOC(=O)N(CC[C@@H](C(=O)NO)[C@]1(CC(C)C)CCN(CCc2ccccc2)C1=O)C(=O)OCc1ccccc1 (relative stereo) [Example 70, Ethyl Phenylmethyl[4-(hydroxyamino)-3-[3-(2-methylpropyl)-2-oxo-1-(2-phenylethyl)-3-pyrrolidinyl]-4-oxobutyl]imidodicarbonate]
–	31	–	CNC(=O)[C@H](CC1CCCCC1)N1CC[C@](CC(=O)NO)(CC(C)C)C1=O [Example 33, [S-(R*,R*)]-α^1-(Cyclohexylmethyl)-N^3-hydroxy-N^1-methyl-3-(2-methylpropyl)-2-oxo-1,3-pyrrolidinediacetamide]
–	4370	115	CC(C)C[C@@]1([C@@H](CCN2C(=O)c3ccccc3C2=O)C(=O)NO)CCN(CCc2ccccc2)C1=O [Example 5, (3S)-α-[2-(1,3-Dihydro-1,3-dioxo-2H-isoindol-2-yl)ethyl]-N-hydroxy-3-(2-methylpropyl)-2-oxo-1-(2-phenylethyl)-3-pyrrolidineacetamide]
–	5700	204	CC(C)C[C@@]1([C@@H](CCN2C(=O)c3ccccc3C2=O)C(=O)NO)CCN(CCc2ccccc2)C1=O (relative stereo) [Example 4, α-[2-(1,3-Dihydro-1,3-dioxo-2H-isoindol-2-yl)ethyl]-N-hydroxy-3-(2-methylpropyl)-2-oxo-1-(2-phenylethyl)-3-pyrrolidineacetamide]

Compound	Ki (Stromelysin) [nM]	Ki (Collagenase) [nM]	Ki (Gelatinase) [nM]
CC(C)CC1(CC(=O)NO)CNN(CCc2ccccc2)C1=O (stereo not shown) [Example 38, N-Hydroxyl-4-(2-methylpropyl)-5-oxo-1-(2-phenylethyl)-4-pyrazolidineacetamide monohydrochloride]	31200	13300	14500
